Test results published in PubChem BioAssay AID1259407 (Chemical Carcinogenesis Research Information System (CCRIS), 2018).
Active and inactive are the calls of the source. How the calls were made is not given here.

System: CCRIS mutagenicity, Ames/micronucleus/aberration tests
Assay: CCRIS mutagenicity studies
[1] = Test System: AMES SALMONELLA TYPHIMURIUM, Strain/Indicator: TA98, Metabolic Activation: HAMSTER, LIVER, S-9, AROCLOR 1254 (10%), Method: PREINCUBATION
[2] = Test System: AMES SALMONELLA TYPHIMURIUM, Strain/Indicator: TA98, Metabolic Activation: NONE, Method: PREINCUBATION
[3] = Test System: AMES SALMONELLA TYPHIMURIUM, Strain/Indicator: TA98, Metabolic Activation: RAT, LIVER, S-9, AROCLOR 1254 (10%), Method: PREINCUBATION
[4] = Test System: AMES SALMONELLA TYPHIMURIUM, Strain/Indicator: TA100, Metabolic Activation: HAMSTER, LIVER, S-9, AROCLOR 1254 (10%), Method: PREINCUBATION
[5] = Test System: AMES SALMONELLA TYPHIMURIUM, Strain/Indicator: TA100, Metabolic Activation: NONE, Method: PREINCUBATION
[6] = Test System: AMES SALMONELLA TYPHIMURIUM, Strain/Indicator: TA100, Metabolic Activation: RAT, LIVER, S-9, AROCLOR 1254 (10%), Method: PREINCUBATION
[7] = Test System: AMES SALMONELLA TYPHIMURIUM, Strain/Indicator: TA1535, Metabolic Activation: HAMSTER, LIVER, S-9, AROCLOR 1254 (10%), Method: PREINCUBATION
[8] = Test System: AMES SALMONELLA TYPHIMURIUM, Strain/Indicator: TA1535, Metabolic Activation: NONE, Method: PREINCUBATION
[9] = Test System: AMES SALMONELLA TYPHIMURIUM, Strain/Indicator: TA1535, Metabolic Activation: RAT, LIVER, S-9, AROCLOR 1254 (10%), Method: PREINCUBATION

SMILES: Cc1ccc(O)c(N)c1
- mutagenic call (Test System: AMES SALMONELLA TYPHIMURIUM, Strain/Indicator: TA97, Metabolic Activation: HAMSTER, LIVER, S-9, AROCLOR 1254 (10%), Method: PREINCUBATION): inactive; negative
- mutagenic call (Test System: AMES SALMONELLA TYPHIMURIUM, Strain/Indicator: TA97, Metabolic Activation: NONE, Method: PREINCUBATION): active; positive
- mutagenic call (Test System: AMES SALMONELLA TYPHIMURIUM, Strain/Indicator: TA97, Metabolic Activation: RAT, LIVER, S-9, AROCLOR 1254 (10%), Method: PREINCUBATION): inactive; negative
- mutagenic call (Test System: AMES SALMONELLA TYPHIMURIUM, Strain/Indicator: TA98, Metabolic Activation: HAMSTER LIVER S-9, AROCLOR 1254, Method: STANDARD PLATE): inactive; negative
- mutagenic call [1]: inactive; negative
- mutagenic call [2]: inactive; negative
- mutagenic call (Test System: AMES SALMONELLA TYPHIMURIUM, Strain/Indicator: TA98, Metabolic Activation: NONE, Method: STANDARD PLATE): inactive; negative
- mutagenic call (Test System: AMES SALMONELLA TYPHIMURIUM, Strain/Indicator: TA98, Metabolic Activation: RAT LIVER S-9, AROCLOR 1254, Method: STANDARD PLATE): inactive; negative
- mutagenic call [3]: inactive; negative
- mutagenic call (Test System: AMES SALMONELLA TYPHIMURIUM, Strain/Indicator: TA100, Metabolic Activation: HAMSTER LIVER S-9, AROCLOR 1254, Method: STANDARD PLATE): inactive; negative
- mutagenic call [4]: active; positive
- mutagenic call [5]: active; positive
- mutagenic call (Test System: AMES SALMONELLA TYPHIMURIUM, Strain/Indicator: TA100, Metabolic Activation: NONE, Method: STANDARD PLATE): inactive; negative
- mutagenic call (Test System: AMES SALMONELLA TYPHIMURIUM, Strain/Indicator: TA100, Metabolic Activation: RAT LIVER S-9, AROCLOR 1254, Method: STANDARD PLATE): inactive; negative
- mutagenic call [6]: active; positive
- mutagenic call (Test System: AMES SALMONELLA TYPHIMURIUM, Strain/Indicator: TA1535, Metabolic Activation: HAMSTER LIVER S-9, AROCLOR 1254, Method: STANDARD PLATE): inactive; negative
- mutagenic call [7]: inactive; negative
- mutagenic call [8]: inactive; negative
- mutagenic call (Test System: AMES SALMONELLA TYPHIMURIUM, Strain/Indicator: TA1535, Metabolic Activation: NONE, Method: STANDARD PLATE): inactive; negative
- mutagenic call (Test System: AMES SALMONELLA TYPHIMURIUM, Strain/Indicator: TA1535, Metabolic Activation: RAT LIVER S-9, AROCLOR 1254, Method: STANDARD PLATE): inactive; negative
- mutagenic call [9]: inactive; negative
- mutagenic call (Test System: AMES SALMONELLA TYPHIMURIUM, Strain/Indicator: TA1537, Metabolic Activation: HAMSTER LIVER S-9, AROCLOR 1254, Method: STANDARD PLATE): inactive; negative
- mutagenic call (Test System: AMES SALMONELLA TYPHIMURIUM, Strain/Indicator: TA1537, Metabolic Activation: NONE, Method: STANDARD PLATE): inactive; negative
- mutagenic call (Test System: AMES SALMONELLA TYPHIMURIUM, Strain/Indicator: TA1537, Metabolic Activation: RAT LIVER S-9, AROCLOR 1254, Method: STANDARD PLATE): inactive; negative
- mutagenic call (Test System: AMES SALMONELLA TYPHIMURIUM, Strain/Indicator: TA1538, Metabolic Activation: HAMSTER LIVER S-9, AROCLOR 1254, Method: STANDARD PLATE): inactive; negative
- mutagenic call (Test System: AMES SALMONELLA TYPHIMURIUM, Strain/Indicator: TA1538, Metabolic Activation: NONE, Method: STANDARD PLATE): inactive; negative
- mutagenic call (Test System: AMES SALMONELLA TYPHIMURIUM, Strain/Indicator: TA1538, Metabolic Activation: RAT LIVER S-9, AROCLOR 1254, Method: STANDARD PLATE): inactive; negative
- mutagenic call (Test System: MOUSE LYMPHOMA, Strain/Indicator: L5178Y (TK+/TK-), Metabolic Activation: NONE, Method: SUSPENSION/PLATE): active; positive. reevaluation of results: positive
- mutagenic call (Test System: MOUSE LYMPHOMA, Strain/Indicator: L5178Y (TK+/TK-), Metabolic Activation: RAT, LIVER, S-9, AROCLOR 1254, Method: SUSPENSION/PLATE): active; positive. reevaluation of results: positive

SMILES: CCCN(CCC)S(=O)(=O)c1ccc(C(=O)O)cc1
- mutagenic call [1]: inactive; negative
- mutagenic call [2]: inactive; negative
- mutagenic call [3]: inactive; negative
- mutagenic call [4]: inactive; negative
- mutagenic call [5]: inactive; negative
- mutagenic call [6]: inactive; negative
- mutagenic call [7]: inactive; negative
- mutagenic call [8]: inactive; negative
- mutagenic call [9]: inactive; negative
- mutagenic call (Test System: AMES SALMONELLA TYPHIMURIUM, Strain/Indicator: TA1537, Metabolic Activation: HAMSTER, LIVER, S-9, AROCLOR 1254 (10%), Method: PREINCUBATION): inactive; negative
- mutagenic call (Test System: AMES SALMONELLA TYPHIMURIUM, Strain/Indicator: TA1537, Metabolic Activation: NONE, Method: PREINCUBATION): inactive; negative
- mutagenic call (Test System: AMES SALMONELLA TYPHIMURIUM, Strain/Indicator: TA1537, Metabolic Activation: RAT, LIVER, S-9, AROCLOR 1254 (10%), Method: PREINCUBATION): inactive; negative
